Experimental data taken from PubChem BioAssay (NCI).
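96-well plates; 48 h exposure; 5 concentrations. Endpoints by linear interpolation between flanking doses. Not reached: highest tested concentration assigned. GI50: concentration for 50% inhibition of growth. TGI: total growth inhibition.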

Experiments:
Test in all cases: NCI-60 cell line screen, 48 h
A498 renal = test system: A498 renal
SNB-75 CNS = test system: SNB-75 CNS
OVCAR-5 ovarian = test system: OVCAR-5 ovarian
OVCAR-8 ovarian = test system: OVCAR-8 ovarian
K-562 leukemia = test system: K-562 leukemia
PC-3 prostate = test system: PC-3 prostate
BT-549 breast = test system: BT-549 breast
U251 CNS = test system: U251 CNS
SK-MEL-28 melanoma = test system: SK-MEL-28 melanoma
UACC-257 melanoma = test system: UACC-257 melanoma

Structure (SMILES) | GI50 (A498 renal) | TGI (A498 renal) | GI50 (SNB-75 CNS) | TGI (SNB-75 CNS) | GI50 (OVCAR-5 ovarian) | TGI (OVCAR-5 ovarian) | GI50 (OVCAR-8 ovarian) | TGI (OVCAR-8 ovarian) | GI50 (K-562 leukemia) | TGI (K-562 leukemia) | GI50 (PC-3 prostate) | TGI (PC-3 prostate) | GI50 (BT-549 breast) | TGI (BT-549 breast) | GI50 (U251 CNS) | TGI (U251 CNS) | GI50 (SK-MEL-28 melanoma) | TGI (SK-MEL-28 melanoma) | GI50 (UACC-257 melanoma) | TGI (UACC-257 melanoma)
COc1ccc(N(CC(=O)NCCC[Te]c2ccccc2)C(=O)c2ccccc2)cc1 | 2.17 µM | 5.35 µM | 2.58 µM | 9.64 µM | 3.8 µM | 11.4 µM | 3.03 µM | 8.12 µM | 5.17 µM | > 100 µM | 2.68 µM | 12.6 µM | 2.39 µM | 8.68 µM | 2.82 µM | 9.4 µM | 4.33 µM | 15.6 µM | – | –
COc1cc2nc3sc(C(=O)Nc4ccc(C(=O)OC(C)C)cc4)c(C(=O)Nc4ccc(Cl)cc4C)n3c(=O)c2cc1OC | 4.69 µM | 26.3 µM | 10.2 µM | 27.8 µM | 17.4 µM | 50.2 µM | 12.6 µM | > 100 µM | 5.29 µM | > 100 µM | 18.5 µM | > 100 µM | 1.67 µM | 20 µM | 5.14 µM | 18.4 µM | 46.2 µM | > 100 µM | 18.4 µM | 93.2 µM
O=[N+]([O-])c1ccc(Br)c([N+](=O)[O-])c1 | 14.3 µM | 27.7 µM | 1.69 µM | 4.36 µM | 1.77 µM | 3.5 µM | 2.49 µM | 6.05 µM | 1.98 µM | > 23.5 µM | 1.94 µM | 3.93 µM | 5.32 µM | 10.9 µM | 1.72 µM | 3.29 µM | 1.89 µM | 3.64 µM | 1.86 µM | 3.37 µM
COc1cc2c3c(n(CCCCOC(=O)C(F)(F)F)c(=O)c2cc1OC)-c1cc2c(cc1C3=O)OCO2 | > 44.4 µM | > 100 µM | > 86.8 µM | > 100 µM | > 100 µM | > 100 µM | > 52.6 µM | > 100 µM | > 50.4 µM | > 100 µM | > 100 µM | > 100 µM | > 100 µM | > 100 µM | > 38.8 µM | > 100 µM | > 100 µM | > 100 µM | > 100 µM | > 100 µM
COc1ccc(-c2[nH]c3ccccc3c2C=C(C#N)C#N)cc1 | 0.294 µM | 2.12 µM | 0.412 µM | 20.5 µM | 2.35 µM | > 100 µM | 1.1 µM | > 100 µM | – | – | 0.547 µM | > 100 µM | 0.769 µM | > 100 µM | 0.479 µM | > 100 µM | 1.14 µM | > 39.3 µM | > 20.6 µM | > 100 µM
COc1ccc(CCN2C(=O)C=CC2=O)cc1OC | – | 33.1 µM | – | 36.1 µM | – | 35.6 µM | – | 44.1 µM | – | > 100 µM | – | 35.1 µM | – | 35.3 µM | – | 39.1 µM | – | 31.4 µM | – | 30.9 µM
Cn1cc(-c2nc(-c3c[nH]c4ncccc34)cs2)c2cc(F)ccc21 | 2.03 µM | 7.48 µM | 2.78 µM | 10.1 µM | 1.25 µM | 6.63 µM | 2.96 µM | > 25.3 µM | 2.19 µM | > 22.9 µM | 2.75 µM | 13.1 µM | 3.7 µM | 13.6 µM | 2.43 µM | 8.08 µM | 4.75 µM | 16.9 µM | 2.72 µM | 12.3 µM
Nc1nc(N)c(N=O)c(Nc2ccc(O)cc2)n1 | – | > 85.1 µM | – | > 67.7 µM | – | > 26.1 µM | – | > 100 µM | – | > 92.1 µM | – | > 100 µM | – | > 82.9 µM | – | > 100 µM | – | > 100 µM | – | > 100 µM
CC(=O)N1c2ccccc2C23CCN(C)CC4C(C)OCC(C4CC2=O)C13 (centres undefined) | – | > 100 µM | – | > 100 µM | – | > 100 µM | – | > 100 µM | – | > 100 µM | – | > 100 µM | – | > 100 µM | – | > 100 µM | – | > 100 µM | – | > 100 µM
Cc1nc(Cl)nc(Cl)c1C | – | – | – | > 100 µM | – | > 100 µM | – | > 100 µM | – | > 100 µM | – | > 100 µM | – | > 100 µM | – | > 100 µM | – | > 100 µM | – | > 100 µM
CCOc1cccc(/C=N/NC(=O)c2ccc(Nc3ccnc(C(F)(F)F)c3)cc2)c1O | 4.65 µM | > 58 µM | 3.34 µM | > 67.5 µM | 7.18 µM | > 100 µM | 0.599 µM | > 72.5 µM | 0.947 µM | > 31.6 µM | 0.607 µM | > 33.8 µM | 1.88 µM | > 85 µM | 0.906 µM | > 58 µM | 1.63 µM | > 58.5 µM | 0.728 µM | > 21.1 µM
O=C(CN1CCN(c2ncnc3ccccc23)CC1)Nc1ccc(Cl)cc1C(=O)c1ccccc1Cl | 1.5 µM | 3.69 µM | 0.434 µM | 1.48 µM | 2.92 µM | > 42.2 µM | 1.28 µM | > 30.9 µM | 0.838 µM | > 52.4 µM | 0.818 µM | > 56.3 µM | 0.239 µM | 0.618 µM | – | – | 1.03 µM | 3.36 µM | 2.04 µM | 6.69 µM
Cn1ccnc1C(=O)/C=C/c1ccc(C(=O)Nc2ccc(Cl)cc2)cc1 | 0.661 µM | > 33.3 µM | 0.615 µM | > 33.3 µM | 1.1 µM | 5.64 µM | 1.01 µM | > 33.3 µM | 0.646 µM | > 33.3 µM | 0.951 µM | 19 µM | 0.958 µM | 7.72 µM | – | – | 3.7 µM | 9.89 µM | 2.48 µM | > 33.3 µM
CC1=C(C(=O)Nc2ccc(F)c(Cl)c2)C(c2ccccc2Cl)NC(=S)N1 (centres undefined) | 12.9 µM | 48.1 µM | – | – | > 50 µM | > 50 µM | 42.7 µM | > 50 µM | 21.7 µM | > 50 µM | 20.2 µM | > 50 µM | > 50 µM | > 50 µM | 25.6 µM | > 50 µM | > 50 µM | > 50 µM | 19.7 µM | 49.7 µM
